Measurements from the NIST ThermoML archive (doi:10.1021/je900414p).
± gives the expanded uncertainty stated by the source.

Test: xn = mol fraction of the nth substance listed
Details: 343.15 K, Liquid

CCOS(=O)(=O)[O-].CCn1cc[n+](C)c1 [1-ethyl-3-methylimidazolium ethyl sulfate] + CCO
mass density [kg/m3]
Details | 100 kPa | 2500 kPa | 5000 kPa | 10000 kPa | 15000 kPa | 20000 kPa | 25000 kPa | 30000 kPa | 35000 kPa
x1 = 0.05056 | 818.25 ± 0.73 | 820.66 ± 0.79 | 823.11 ± 0.87 | 827.83 ± 1 | 832.27 ± 1.2 | 836.51 ± 1.4 | 840.54 ± 1.5 | 844.41 ± 1.6 | 848.12 ± 1.8
x1 = 0.103 | 877.67 ± 0.63 | 879.77 ± 0.67 | 881.99 ± 0.71 | 886.23 ± 0.8 | 890.27 ± 0.88 | 894.14 ± 0.96 | 897.85 ± 1 | 901.43 ± 1.1 | 904.85 ± 1.2
x1 = 0.1247 | 899.5 ± 0.6 | 901.47 ± 0.62 | 903.69 ± 0.66 | 907.82 ± 0.72 | 911.68 ± 0.78 | 915.39 ± 0.84 | 918.99 ± 0.89 | 922.46 ± 0.94 | 925.77 ± 0.99
x1 = 0.2126 | 969.67 ± 0.49 | 971.48 ± 0.49 | 973.32 ± 0.5 | 976.91 ± 0.5 | 980.38 ± 0.51 | 983.71 ± 0.51 | 986.96 ± 0.5 | 990.09 ± 0.5 | 993.12 ± 0.49
x1 = 0.2919 | 1019.38 ± 0.47 | 1020.57 ± 0.48 | 1022.23 ± 0.48 | 1025.5 ± 0.5 | 1028.64 ± 0.53 | 1031.72 ± 0.56 | 1034.69 ± 0.6 | 1036.01 ± 0.64 | 1040.41 ± 0.7
x1 = 0.3185 | 1032.6 ± 0.5 | 1034.03 ± 0.49 | 1035.67 ± 0.5 | 1038.87 ± 0.53 | 1041.94 ± 0.57 | 1044.93 ± 0.62 | 1047.86 ± 0.67 | 1050.69 ± 0.73 | 1053.46 ± 0.8
x1 = 0.4198 | 1076.98 ± 0.53 | 1078.52 ± 0.56 | 1080 ± 1 | 1082.95 ± 0.67 | 1085.8 ± 0.8 | 1088.59 ± 0.85 | 1091.31 ± 0.95 | 1093.96 ± 1.1 | 1096.54 ± 1.2
x1 = 0.4847 | 1099.67 ± 0.56 | 1100.97 ± 0.6 | 1102.41 ± 0.65 | 1105.21 ± 0.74 | 1107.95 ± 0.85 | 1110.61 ± 0.97 | 1113.23 ± 1.1 | 1115.78 ± 1.3 | 1118.28 ± 1.4
x1 = 0.5713 | 1125.7 ± 0.6 | 1126.98 ± 0.66 | 1128.32 ± 0.71 | 1131.01 ± 0.84 | 1133.6 ± 1 | 1136.16 ± 1.1 | 1138.67 ± 1.3 | 1141.1 ± 1.5 | 1143.48 ± 1.7
x1 = 0.6827 | 1152.86 ± 0.65 | 1154.1 ± 0.7 | 1155.37 ± 0.79 | 1157.89 ± 0.94 | 1160.38 ± 1.1 | 1162.8 ± 1.3 | 1165.19 ± 1.6 | 1167.53 ± 1.8 | 1169.82 ± 2
x1 = 0.7919 | 1175 ± 1 | 1175.81 ± 0.77 | 1177.05 ± 0.85 | 1179.48 ± 1 | 1181.84 ± 1.3 | 1184.18 ± 1.5 | 1186.47 ± 1.7 | 1188.72 ± 2 | 1190.93 ± 2.2
x1 = 0.9317 | 1196.87 ± 0.73 | 1198.02 ± 0.82 | 1199.21 ± 0.92 | 1201.52 ± 1.1 | 1203.82 ± 1.4 | 1206.06 ± 1.6 | 1208.26 ± 1.9 | 1210.44 ± 2.2 | 1212.58 ± 2.4
